Experimental data reported in a melting point compilation (Tetko et al.; mined from patent text by program, amines drawn as free bases though some values may be those of a salt).

| SMILES | melting point [°C] |
| --- | --- |
| COc1ccc(CN2CCC(c3cn(Cc4cccs4)c4cc(F)ccc34)CC2)cc1C(=O)O | 245 to 246 |
| CCCCCCCCCCOc1cc2oc3c(C(=O)OCC)cccc3c(=O)c2cc1CCC(=O)OCC | 61 to 63 |
| CCCOc1ccc(-c2ccc(Cl)nn2)cc1OC | 132 |
| CCC(CC)=NNc1cc2c(nn1)CCN(C(=O)C(C)(C)C)C2 | 183 to 185 |
| C=Cc1ccc(S(=O)(=O)Nc2ncnc(Cl)c2Cc2c(OC)cccc2OC)cc1 | 197 to 198 |
| CCCc1nc2ccnn2c(O)c1Cc1ccc(-c2ccccc2-c2nnn[nH]2)cc1 | > 320 |
| O=C(O)c1cnn(-c2c(Cl)cc(C(F)(F)F)cc2Cl)n1 | 155 to 157 |
| O=C(NCC1CCCO1)c1c[nH]c2ccccc2c1=O (stereo not drawn) | 205 to 209 |
| CCOC(=O)c1cnc(C)nc1NCc1ccc(-c2ccccc2-c2nnnn2C(c2ccccc2)(c2ccccc2)c2ccccc2)cc1 | 155 to 156 |
| COCc1c(-c2ccncc2)[nH]c(-c2ccncc2)c1C(=O)OC | 97 to 99 |
| CC1=NN(c2cc(-c3ccnc(Nc4cccc(Cl)c4)n3)ccn2)C(=O)C1 | 149 to 150 |
| CCCCc1cnc2ccc(C(=O)O)cc2c1O | 260 |
| CCCc1c(OCCCCCNC(=O)NCCCCc2cccnc2)ccc(C(C)=O)c1O | 73 to 76 |
| CCCCCN1Cc2cc(C)ccc2CCC1=O | 95 to 97 |
| Brc1nc2cncnc2n1Cc1ccccc1 | 119 to 121 |
| O=C(NCC1CCN(CC2(C(=O)O)CCCC2)CC1)N1C(=O)C2(CCCC2)c2ccccc21 | 188 |
| COc1ccc(N2CCN(c3c(C)c(C)c4c(c3C)C(Nc3ccccc3)C(C)(C)O4)CC2)cc1 (stereo not drawn) | 90 to 94 |
| OC1N=C(c2ccccc2Cl)c2cc(Cl)ccc2-c2ncncc21 (stereo not drawn) | 105 to 117 |
| NC(=NCC(F)(F)F)Nc1ccnc(CCCCO)n1 | 135 to 136 |
| CC(=O)C1CCC2C3CCC4CC(O)CCC4(C)C3=CCC12C (stereo not drawn) | 160 to 161 |

| SMILES | melting point [°C] |
| --- | --- |
| NC(Cc1cccc2cccc(Br)c12)=NO | 123 to 125 |
| Cn1cnc(C2C(Cl)=CC=CC2(F)Cc2ccc(Cl)cc2)n1 (stereo not drawn) | 78.5 to 80.5 |
| O=C(Nc1ccc(Cl)c(C(F)(F)F)c1)Nc1ccc(Cl)cc1-c1nnn[nH]1 | 245 to 247 |
| CC(C)CC(=O)N[C@H]1N=C(c2ccccc2)c2ccccc2N(C)C1=O | 83 to 102 |
| CN1CC(=O)Nc2ncccc2C1=O | 245 to 247 |
| C[C@@H](NC(=O)c1ccc(-c2ccc(Cl)cc2)cc1)[C@](O)(Cn1cncn1)c1ccc(F)cc1F | 173 to 174 |
| CCOc1cccc(C2NC(C(=O)O)CS2)c1OCCO[N+](=O)[O-] (stereo not drawn) | 124 to 125 |
| O=[N+]([O-])c1cn2c(n1)O[C@@H](COc1ccc(N3CCC(Nc4ccc(Oc5ccc(OC(F)(F)F)cc5)cc4)CC3)cc1)CC2 | 120 to 121 |
| COc1cc(N2CCCN(C[C@H](O)CO)CC2)ccc1Nc1ncc2ccc(-c3ccccc3N(C)S(C)(=O)=O)n2n1 | 93 to 99 |
| Cc1cc(CCNc2ncnc3c(F)ccc(F)c23)ccc1Oc1cc(C(F)(F)F)ccn1 | 108 to 110 |
| COC1=C(Cc2ccc(Cl)cc2)C(=O)CC(C)(C)C1 | 62 to 63 |
| COC(=O)c1cnc2n1CCc1ccccc1C2=C1CCN(CCc2ccc(OCc3ccc4ccccc4n3)cc2)CC1 | 179 |
| Nc1nnc(-c2ccc3occ(-c4ccccc4Cl)c3c2)o1 | 220 to 221 |
| CSc1nn2c(O)cc(C)nc2c1S(=O)(=O)c1ccc(C(C)C)cc1 | 183 to 184 |
| O=C(Cc1ccnc(Cl)n1)c1ccc(F)cc1 | 112 to 113 |
| Cc1cc(O)nc(C(Cl)(Cl)Cl)n1 | 173 to 174 |
| CCN1CCC(=O)C(=C2SC=CS2)C1=O | 114 to 117 |
| CCCC1(CCC(C)=O)Cc2cc(CC(=O)O)c(Cl)c(Cl)c2C1=O (stereo not drawn) | 137 to 139 |
| O=C(O)CN=c1sc2ccccc2s1 | 195 to 200 |
| O=C(Nc1cccc2[nH]ccc12)C1(OCC2CO2)C=C(Cl)C=CC1 (stereo not drawn) | 175 |

| SMILES | melting point [°C] |
| --- | --- |
| COc1cc2c(cc1OC)C1(CCN(CCc3ccc([N+](=O)[O-])cc3)CC1)N(Cc1ccc([N+](=O)[O-])cc1)CC2=O | 174 to 177 |
| COc1cccc([C@H]2O[C@H](CC(=O)Nc3cc(CCC(=O)O)ccc3C)C(=O)N(CC(C)(C)CO)c3ccc(Cl)cc32)c1OC | 154 to 155 |
| CCC(=O)c1ncn2c1CN(C)C(=O)c1ccccc1-2 | 215 to 216 |
| COC(=O)c1cc(N)c(NC(C)=O)c(Br)c1O | 217 to 219 |
| CCSC(=S)SC1NC(=O)C1C(C)C (stereo not drawn) | 65 to 66 |
| CC(C)(CO)CCCNC(=O)NCCCC(C)(C)CO | 81 to 82 |
| O=C(NCCO)/C(=C/c1ccc(OC(F)(F)F)cc1)NC(=O)c1ccc(OCCC2CC2)cc1 | 142 to 144 |
| O=C(O)C1(CCCCCCCCCCCCC2(C(F)F)CC2)CC1 | 54 to 54.8 |
| O=S(=O)(c1ccccc1)c1ncc(F)cn1 | 105 |
| CC(=O)SCCC1C(=O)N2CCCC(C(=O)OC(C)(C)C)N2C1=O (stereo not drawn) | 86 to 88 |
| COc1ccc2c(c1)c(Cc1cc(=O)n(-c3cccc(Cl)c3)[nH]1)c(C)n2C(=O)c1ccc(Cl)cc1 | 148 to 150 |
| CNC(=O)c1ccc(Br)c2nsnc12 | 156 to 160 |
| CN1C(=O)N(CC(CS(=O)(=O)c2ccc(-c3ccc(Cl)cc3)cc2)C(=O)O)C(=O)C1(C)C (stereo not drawn) | 148 to 150 |
| CN(C)c1nc(=O)c(C(C)(C)C)nn1N | 168 to 169 |
| O=C(NC(=O)c1c(F)cccc1Cl)Nc1ccc(Cl)cn1 | 210 to 215 |
| CCCC1=C(C#N)C(c2cccc(C#N)c2Br)c2c[nH]nc2N1C (stereo not drawn) | 218 to 220 |
| FC(F)(F)c1c[nH]c(-c2cccc(OCC3CO3)c2)n1 (stereo not drawn) | 145 to 146 |
| CC1(c2ccccc2)CNC(=O)O1 (stereo not drawn) | 144 to 145 |
| CCOC(=O)[C@@H](C)OC(=O)c1ccc([N+](=O)[O-])cc1 | 42 to 43 |

Other lines, results leading:

| melting point [°C] | SMILES |
| --- | --- |
| 95 | O=C(NC(=O)N1CCC(Cc2ccccc2)CC1)c1ccc(O)cc1 |
| 116 to 118 | Cc1cc(Oc2ncc(C(F)(F)F)cc2Cl)nn1C(=O)Nc1ccccc1 |
| 222 | CC(=O)c1c2sc3ccccc3nc-2ccc1=O |
| 113 to 115 | CC(C)(O)c1cc(-c2ccc(Cl)cc2)nc2ccnn12 |
| 110 to 111 | COc1ccc(C(=NOC(C)=O)c2cc(F)ccc2F)c(O)c1 |
| 169 | CNC(=O)N(O)Cc1ccc(-c2ccccc2)s1 |
| 94.5 to 95.5 | CC[C@H](C)[C@H](NC(=O)[C@H](Cc1ccccc1)NC(=O)OCc1ccccc1)C(=O)OC |
| 60 to 61 | CCOC(=O)C1(Cc2cccc(C)c2Br)CN(Cc2ccccc2)CCC1=O (stereo not drawn) |
| 106 to 108 | CCN1c2ncccc2C(=O)N(C)c2ccc(-c3cccn3C(C)=O)nc21 |
| 187 to 191 | CCCn1nc(C2CC2)c(C(N)=O)c1Cc1ccc(-c2ccccc2S(=O)(=O)NC(=O)c2ccccc2)cc1 |
| 92 to 105 | Cc1cccc(C(CNc2ncnc3c2ncn3C2OC(CO)C(O)C2O)c2ccccc2)c1 (stereo not drawn) |
| 104 to 105 | C#CCn1c(-c2cccnc2)c(C)c2ccccc21 |
| 177 to 179 | COc1ccc(-c2cn3ccc4ccccc4c3n2)cc1 |
| 243 | COC(=O)[C@@H]1C[C@H](C(=O)OC(C)(C)C)N(C(=O)CNC(=O)Nc2cccc(C(=O)O)c2)[C@@H]1c1ccccc1 (racemic) |
| 177 to 178 | CCCn1nc2c(N)nc3ccccc3c2c1CC(C)(C)NC(=O)C(C)C |
| 81.7 to 84.7 | O=C(OCc1ccccc1)c1cccc(OCc2ccccc2)c1[N+](=O)[O-] |
| 182 to 186 | O=C(c1ccc(-c2ccccc2)cc1)c1cccc(C(=O)c2ccc(-c3ccccc3)cc2)c1 |
| 110 | C=C(C)N(C(=C)C)C(=O)C(C)Oc1cc(-c2ccccc2)nc2ccccc12 (stereo not drawn) |
| > 320 | O=C1c2ccccc2C(=O)c2c1c(Br)n1c2Cc2ccccc2C1 |
| 86 | CCCCCCn1c(-c2ccc(Cl)c(S(=O)(=O)N(C)C)c2)csc1=Nc1ccccc1 |

| melting point [°C] | SMILES |
| --- | --- |
| 58 to 60 | CC(=CC(=O)O)c1ccc(-c2ccc(F)cc2)cc1 |
| 235 to 236 | CC(C)(C(=O)O)C(O)c1ccnc(-c2nc(=O)c3ccccc3s2)c1 (stereo not drawn) |
| > 300 | CC(=O)N(CC=C=CC=c1c(C)c2c(n(C)c1=O)=NN(c1ccccc1)C2=O)c1ccccc1 |
| 54 to 56 | Cc1onc(-c2ccccc2)c1-c1ccc(S(C)(=O)=O)cc1 |
| 109 | C=CCOc1cccc(C(=O)c2ccccc2C(=O)O)c1 |
| 162 | CC(C)S(=O)(=O)n1cc(-c2ccc(Oc3ccccc3)cc2)c2c(N)ncnc21 |
| 99 to 101 | BrCc1cc2ccsc2c2ccccc12 |
| 273 to 276 | C(=C\c1cc(/C=C/c2ccc3cc[nH]c3c2)n[nH]1)/c1ccc(-c2ccccc2)cc1 |
| 120 to 123 | CS(=O)(=O)c1ccc(-n2nc(CCCO)cc2-c2ccccc2)cc1 |
| 252 to 254 | COc1ccc(-c2nnc3c4ccccc4c(OCCO)nn23)cc1 |
| 163 to 164 | CCOC(=O)c1c(-c2ccccc2)csc1N1C(=O)c2ccccc2C1=O |
| 60 to 61 | CC(=O)CC(C)c1ccc(-c2ccccc2F)cc1 (stereo not drawn) |
| 212 to 214 | O=C(Nc1nc(-c2ccccc2)c(-c2nc3ccccc3c(=O)n2-c2ccccc2Cl)s1)c1ccccc1 |
| 107 to 110 | CC(=O)C(Cc1ccccc1)Nc1nc2ccc(C(C)C)cc2s1 (stereo not drawn) |
| 120 to 121 | Cc1oc(-c2ccccc2)nc1COc1ccc(CCCC2OC(=O)NC2=O)cc1OC(C)C (stereo not drawn) |
| 181 | CCOC(=O)CN(C(=O)CNC(=O)Nc1cccc(C)c1)c1ccccc1 |
| 161 to 163 | CC(O)(C(=O)O)c1ccc(-c2ccccc2)c(F)c1 (stereo not drawn) |
| 186 to 189 | CC(=O)OC1CSC(Oc2cccc(-c3cccc(Cl)n3)c2)C(OC(C)=O)C1OC(C)=O (stereo not drawn) |
| 163 to 165 | COc1cc2c(cc1C(C)=O)sc1ccccc12 |
